Converted amounts (≈) assume the structure as drawn. “And” between values parts separate entries of the source, which are not always exact repeats. Equal values may be shown once. Read-outs that look alike come from different tables or passages of the source.
Columns and labels:
Format in all cases: cell-based, Candida albicans
[1] = tested on: C. albicans ATCC 10231 (strain A); experiment: MIC determination by in vitro antifungal assay (CLSI broth dilution); details: strain A = C. albicans ATCC 10231, no visible growth, 48 h at 35° C.
Protocol: (§1) 10 mg/mL stock solutions of compounds 1a-9j were prepared in dimethyl sulfoxide (DMSO) and were stored at −20° C. in the dark. The antifungal agent amphotericin B (AmB) was purchased from VWR (Radnor PA, USA). AmB was dissolved in DMSO at a final concentration of 5 mg/mL and was stored at −20° C., protected from light. Candida albicans American Type Culture Collection (ATCC) 10231 (strain A), C. albicans ATCC 64124 (B), and C. albicans ATCC MYA-2876 (C) were obtained from Utah State University. C. albicans ATCC 90819 (D), C. albicans ATCC MYA-2310 (E), C. albicans ATCC MYA-1237 (F), C. albicans ATCC MYA-1003 (G), Candida glabrata ATCC 2001 (H), Candida krusei ATCC 6258 (I), Candida parapsilosis ATCC 22019 (J), Cryptococcus neoformans ATCC MYA-895 (M), Aspergillus terreus ATCC MYA-3633 (N), and Aspergillus flavus ATCC MYA-3631 (0) were obtained from the American Type Culture Collection (ATCC; Manassas, VA, USA). Aspergillus nidulans ATCC 38163 (P) was obtained from University of Kentucky. Clinically derived Aspergillus fumigatus NRRL 163 (Q), A. fumigatus NRRL 5109 (R), and A. fumigatus NRRL 6113 (S) were obtained from Northern Regional Research Laboratory (NRRL). Candida auris 384 (K), C. auris 390 (L), and fungal strains 381-400 (including 10 C. auris (AR Bank #381-390), 3 Candida duobushaemulonii (AR Bank #391, AR Bank #392, and AR Bank #394), 2 Candida haemulonii (AR Bank #393 and AR Bank #395), 1 Kodameae ohmeri (AR Bank #396), 1 C. krusei (AR Bank #397), 1 Candida lusitaniae (AR Bank #398), and 2 Saccharomyces cerevisiae strains (AR Bank #399 and AR Bank #400)) were part of a larger fungal library from the AR Bank maintained by the Centers for Disease Control and Prevention (CDC; Atlanta, GA, USA). Filamentous fungi and yeasts were cultivated at 35° C. in RPMI 1640 medium (with L-glutamine, without sodium bicarbonate, Sigma-Aldrich, St. Louis, MO) buffered to a pH of 7.0 with 0.165 M morpholinepropanesulfonic acid (MOPS) buffer (Sigma-Aldrich). For cytotoxicity assays, HepG2 and the mouse macrophage cell line J774A.1 were obtained from University of Kentucky. The human embryonic kidney cell line, HEK-293, was bought from the ATCC. Mammalian cells were grown in Dulbecco's Modified Eagle's Medium (DMEM) (from VWR) with 10% fetal bovine serum (FBS) (from VWR) and 1% Pen/Strep (from ATCC). Cell lines were cultured at 37° C. with 5% CO2 and passaged by trypsinization with 0.05% trypsin: 0.53 mM EDTA (from Sigma-Aldrich).
(§2) The MIC values of compounds 1a-9j against yeast cells (strains A-P and 381-400) were determined in 96-well plates as described in the CLSI documents M27-A3 and M38-A2 with minor modifications.^2 A single colony of freshly prepared yeast cells was used to inoculate 5 mL of yeast extract peptone dextrose (YPD) broth prior to incubation overnight with shaking at 200 rpm at 35° C. From the actively growing yeast culture, 100 µL were then transferred to 900 μL of RPMI 1640 medium and re-adjusted to achieve OD600 of 0.12 (˜1×10^6 CFU/mL). The cell suspension was further diluted to achieve 1:100 in RPMI 1640 medium. 100 μL of cells were added to the wells of a 96-well microtiter plates that contained 100 µL of the compound solution to obtain concentrations of 0.06-31.3 μg/mL of compounds 1a-9j or AmB prior to incubation for 48 h at 35° C. […]

[2] = tested on: C. albicans ATCC 64124 (B); experiment: MIC determination by in vitro antifungal assay
Protocol: as §1, §2

[3] = tested on: C. albicans ATCC 90819 (D); experiment: MIC determination by in vitro antifungal assay
Protocol: as §1, §2

[4] = tested on: C. albicans ATCC MYA-1003 (G); experiment: MIC determination by in vitro antifungal assay; details: strain G = C. albicans ATCC MYA-1063(R) (footnote), MYA-1003 in text
Protocol: as §1, §2

[5] = tested on: C. albicans ATCC MYA-1237 (F); experiment: MIC determination by in vitro antifungal assay; details: strain F = C. albicans ATCC MYA-1237(R)
Protocol: as §1, §2

[6] = tested on: C. albicans ATCC MYA-2310 (E); experiment: MIC determination by in vitro antifungal assay; details: strain E = C. albicans ATCC MYA-2310
Protocol: as §1, §2

[7] = tested on: C. albicans ATCC MYA-2876 (C); experiment: MIC determination by in vitro antifungal assay; details: strain C = C. albicans ATCC MYA-2876(S)
Protocol: as §1, §2

[8] = Candida albicans, ATCC10231, 48 h, read-out: MIC
[9] = Candida albicans, ATCC64124, strain B = C. albicans ATCC 64124, read-out: MIC
[10] = Candida albicans, ATCC90819, strain D = C. albicans ATCC 90819(R), read-out: MIC
[11] = Candida albicans, read-out: MIC
[12] = strain B = C. albicans ATCC 64124
[13] = strain D = C. albicans ATCC 90819(R)

Structure (SMILES) | MIC [1, 8] | MIC [2, 9] | MIC [3, 10] | MIC [4, 11] | MIC [5, 11] | MIC [6, 11] | MIC [7, 11] | MIC [1] | MIC [2, 12] | MIC [3, 13] | MIC [4] | MIC [5] | MIC [6] | MIC [7]
O=C(NNc1ccc(F)cc1F)c1ccccn1 [Compound 2g] | 0.12 µg/mL (≈ 0.482 µM) | 1.95 µg/mL (≈ 7.82 µM) | 0.98 µg/mL (≈ 3.93 µM) | 0.49 µg/mL (≈ 1.97 µM) | 0.49 µg/mL (≈ 1.97 µM) | 31.3 µg/mL (≈ 126 µM) | 0.98 µg/mL (≈ 3.93 µM) |  |  |  |  |  |  | 
COc1cccc(NNC(=O)c2ccc(F)cc2F)c1 [Compound 1c] | 0.98 µg/mL (≈ 3.52 µM) | 1.95 µg/mL (≈ 7.01 µM) | 3.9 µg/mL (≈ 14 µM) | 1.95 µg/mL (≈ 7.01 µM) | 3.9 µg/mL (≈ 14 µM) | 3.9 µg/mL (≈ 14 µM) | 3.9 µg/mL (≈ 14 µM) |  |  |  |  |  |  | 
O=C(NNc1ccc(F)cc1F)c1ccc(Br)cn1 [Compound 4g] | 3.9 µg/mL (≈ 11.9 µM) | 15.6 µg/mL (≈ 47.5 µM) | 3.9 µg/mL (≈ 11.9 µM) | 15.6 µg/mL (≈ 47.5 µM) | 1.95 µg/mL (≈ 5.94 µM) | > 31.3 µg/mL | 0.98 µg/mL (≈ 2.99 µM) |  |  |  |  |  |  | 
O=C(NNc1cc(F)ccc1F)c1ccc(F)cc1F [Compound 1h] | 3.9 µg/mL (≈ 13.7 µM) | 15.6 µg/mL (≈ 54.9 µM) | 31.3 µg/mL (≈ 110 µM) | 31.3 µg/mL (≈ 110 µM) | 31.3 µg/mL (≈ 110 µM) | 31.3 µg/mL (≈ 110 µM) | 31.3 µg/mL (≈ 110 µM) |  |  |  |  |  |  | 
O=C(NNc1cccc(F)c1)c1cnccn1 [Compound 9a] |  |  |  |  |  |  |  | 0.24 μg/mL^−1 | 1.95 μg/mL^−1 | 0.98 μg/mL^−1 | 0.98 μg/mL^−1 | 0.98 μg/mL^−1 | 7.8 μg/mL^−1 | 3.9 μg/mL^−1
COc1ccc(NNC(=O)c2ccc(Br)cn2)cc1 [Compound 4f] | 3.9 µg/mL (≈ 12.1 µM) | 3.9 µg/mL (≈ 12.1 µM) | 3.9 µg/mL (≈ 12.1 µM) | 1.95 µg/mL (≈ 6.05 µM) | 0.98 µg/mL (≈ 3.04 µM) | 3.9 µg/mL (≈ 12.1 µM) | 1.95 µg/mL (≈ 6.05 µM) |  |  |  |  |  |  | 
C[C@@H]1[C@H](O)[C@@H](C)/C=C/C=C/C=C/C=C/C=C/C=C/C=C/[C@H](O[C@@H]2O[C@H](C)[C@@H](O)[C@H](N)[C@@H]2O)C[C@@H]2O[C@](O)(C[C@@H](O)C[C@@H](O)[C@H](O)CC[C@@H](O)C[C@@H](O)CC(=O)O[C@H]1C)C[C@H](O)[C@H]2C(=O)O [AmB, amphotericin B, reference compound] |  |  |  |  |  |  |  | 1.95 μg/mL^−1 | 1.95 μg/mL^−1 | 0.98 μg/mL^−1 | 0.98 μg/mL^−1 and 1.95 μg/mL^−1 | 1.95 μg/mL^−1 | 0.98 μg/mL^−1 | 1.95 μg/mL^−1
O=C(NNc1ccc(F)cc1)c1ccc(F)cc1F [Compound 1d] | 0.49 µg/mL (≈ 1.84 µM) | 7.8 µg/mL (≈ 29.3 µM) | 1.95 µg/mL (≈ 7.32 µM) | 1.95 µg/mL (≈ 7.32 µM) | 1.95 µg/mL (≈ 7.32 µM) | 3.9 µg/mL (≈ 14.6 µM) | 7.8 µg/mL (≈ 29.3 µM) |  |  |  |  |  |  | 
O=C(NNc1ccc(F)cc1)c1cnccn1 [Compound 9d] | 0.24 µg/mL (≈ 1.03 µM) | 1.98 µg/mL (≈ 8.53 µM) | 0.98 µg/mL (≈ 4.22 µM) | 1.95 µg/mL (≈ 8.4 µM) | 0.98 µg/mL (≈ 4.22 µM) | 7.8 µg/mL (≈ 33.6 µM) | 7.8 µg/mL (≈ 33.6 µM) |  |  |  |  |  |  | 
COc1cccc(NNC(=O)c2ccc(F)cn2)c1 [Compound 3c] |  |  |  |  |  |  |  | 0.24 μg/mL^−1 | 0.95 μg/mL^−1 | 3.9 μg/mL^−1 | 0.98 μg/mL^−1 | 1.95 μg/mL^−1 | 1.95 μg/mL^−1 | 0.49 μg/mL^−1
COc1ccc(NNC(=O)c2nc(F)ccc2F)cc1 [Compound 8f] | 1.95 µg/mL (≈ 6.98 µM) | 1.95 µg/mL (≈ 6.98 µM) | 1.95 µg/mL (≈ 6.98 µM) | 0.98 µg/mL (≈ 3.51 µM) | 0.98 µg/mL (≈ 3.51 µM) | 1.95 µg/mL (≈ 6.98 µM) | 1.95 µg/mL (≈ 6.98 µM) |  |  |  |  |  |  | 
